Experimental data as given in patent US11458123B2 (Arvinas, Inc., priority 2016, dated 2022).

System: tau protein
Test: Tau protein in vitro degradation assay (Western blot, Tau-13 antibody)
Format: cell-based, human
Details: SK-N-SH cells; 72 hours of incubation; tested at 300 nM, 100 nM, 33 nM and 11 nM; Western blot, Tau-13 antibody
Procedure, shortened: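 SK-N-SH cells, seeded ≥18 h beforehand, were incubated 72 h with tau PROTACs at 1000, 300 and 100 nM or at 300, 100, 33 and 11 nM. Lysates in protease-inhibitor buffer were resolved by SDS-PAGE; tau quantified by Western blot with Tau-13 antibody recognising all human tau forms.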

| Compound | Degradation activity* (highest amount of degradation observed at any dosage; tau protein remaining) | Degradation activity (tau protein remaining; highest amount of degradation observed at any dosage) |
| --- | --- | --- |
| Cn1c2ccncc2c2ccc(-c3ccc(O[C@H]4C[C@@H](Oc5ccc(C#CCOC6CN(c7ccc8c(c7)C(=O)N(C7CCC(=O)NC7=O)C8=O)C6)nc5)C4)nc3)cc21 (stereo partly drawn) [Compound 159, 2-(2,6-dioxopiperidin-3-yl)-5-(3-((3-(5-((1 s,3 s)-3-((5-(5-methyl-5H-pyrido[4,3-b]indol-7-yl)pyridin-2-yl)oxy)cyclobutoxy)pyridin-2-yl)prop-2-yn-1-yl)oxy)azetidin-1-yl)isoindoline-1,3-dione] | C (>80% tau protein remaining after 72 hours of incubation with the test compound) |  |
| O=C1CCC(N2C(=O)c3ccc(OCCCCCN4CCC(O[C@H]5C[C@H](Oc6ccc(-c7ccc8c(c7)[nH]c7ccncc78)cn6)C5)CC4)cc3C2=O)C(=O)N1 (stereo partly drawn) [Compound 65, 5-((5-(4-((1r,3r)-3-((5-(5H-pyrido[4,3-b]indol-7-yl)pyridin-2-yl)oxy)cyclobutoxy)piperidin-1-yl)pentyl)oxy)-2-(2,6-dioxopiperidin-3-yl)isoindoline-1,3-dione] | C (>80% tau protein remaining after 72 hours of incubation with the test compound) |  |
| Cn1c2ccncc2c2ccc(-c3ccc(O[C@H]4C[C@@H](C(=O)N5CC6(CC(OCCCCOc7ccc8c(c7)C(=O)N(C7CCC(=O)NC7=O)C8=O)C6)C5)C4)nc3)cc21 (stereo partly drawn) [Compound 136, 2-(2,6-dioxopiperidin-3-yl)-5-(4-((2-((1 s,3 s)-3-((5-(5-methyl-5H-pyrido[4,3-b]indol-7-yl)pyridin-2-yl)oxy)cyclobutane-1-carbonyl)-2-azaspiro[3.3]heptan-6-yl)oxy)butoxy)isoindoline-1,3-dione] | C (>80% tau protein remaining after 72 hours of incubation with the test compound) |  |
| O=C1CCC(N2Cc3cc(OCC#Cc4ccc(O[C@H]5C[C@H](Oc6ccc(-c7ccc8c(c7)[nH]c7ccncc78)cn6)C5)cn4)ccc3C2=O)C(=O)N1 (stereo partly drawn) [Compound 180, 3-(5-((3-(5-((1r,3r)-3-((5-(5H-pyrido[4,3-b]indol-7-yl)pyridin-2-yl)oxy)cyclobutoxy)pyridin-2-yl)prop-2-yn-1-yl)oxy)-1-oxoisoindolin-2-yl)piperidine-2,6-dione] |  | A (≤50% tau protein remaining after 72 hours of incubation with the test compound) |
| Cn1c2ccncc2c2c(F)c(F)c(-c3ccc(OCCOCCOCCOCCOCCOc4ccc5c(c4)C(=O)N(C4CCC(=O)NC4=O)C5=O)nc3)cc21 (stereo not drawn) [Compound 112, 5-((14-((5-(8,9-difluoro-5-methyl-5H-pyrido[4,3-b]indol-7-yl)pyridin-2-yl)oxy)-3,6,9,12-tetraoxatetradecyl)oxy)-2-(2,6-dioxopiperidin-3-yl)isoindoline-1,3-dione] | A (≤50% tau protein remaining after 72 hours of incubation with the test compound) |  |
| Cn1c2ccncc2c2ccc(-c3ccc(OCCCCCOCCCCCN4CC(Oc5ccc6c(c5)C(=O)N(C5CCC(=O)NC5=O)C6=O)C4)nc3)cc21 (stereo not drawn) [Compound 80, 2-(2,6-dioxopiperidin-3-yl)-5-((1-(5-((5-((5-(5-methyl-5H-pyrido[4,3-b]indol-7-yl)pyridin-2-yl)oxy)pentyl)oxy)pentyl)azetidin-3-yl)oxy)isoindoline-1,3-dione] | A (≤50% tau protein remaining after 72 hours of incubation with the test compound) |  |
| Cn1c2ccncc2c2ccc(-c3cnc(OCCOCCOCCOCCOCCOc4ccc5c(c4)C(=O)N(C4CCC(=O)NC4=O)C5=O)cc3Cl)cc21 (stereo not drawn) [Compound 113, 5-((14-((4-chloro-5-(5-methyl-5H-pyrido[4,3-b]indol-7-yl)pyridin-2-yl)oxy)-3,6,9,12-tetraoxatetradecyl)oxy)-2-(2,6-dioxopiperidin-3-yl)isoindoline-1,3-dione] | C (>80% tau protein remaining after 72 hours of incubation with the test compound) |  |

Same assay, conditions: SK-N-SH cells; 72 hours of incubation; tested at 1000 nM, 300 nM and 100 nM

| Compound | Activity* (highest amount of degradation observed at any dosage, as tau protein remaining) |
| --- | --- |
| Cc1ncsc1-c1ccc(CNC(=O)[C@@H]2C[C@@H](O)CN2C(=O)[C@@H](NC(=O)COCCOCCOc2ccc(-c3ccc4c(c3)[nH]c3ccncc34)cn2)C(C)(C)C)cc1 [Compound 5, (2S,4R)-1-((S)-2-(2-(2-(2-(5-(5H-pyrido[4,3-b]indol-7-yl)pyridin-2-yloxy)ethoxy)ethoxy)acetamido)-3,3-dimethylbutanoyl)-4-hydroxy-N-(4-(4-methylthiazol-5-yl)benzyl)pyrrolidine-2-carboxamide] | C (>80% tau protein remaining after 72 hours of incubation with the test compound) |
| Cc1ncoc1-c1ccc(CNC(=O)[C@@H]2C[C@@H](O)CN2C(=O)[C@@H](NC(=O)COCCOCCOCCOCC(=O)N2CCN(c3ccn4c(n3)nc3ccccc34)CC2)C(C)(C)C)cc1 [Compound 14, (2S,4R)-1-((S)-17-(4-(benzo[4,5]imidazo[1,2-a]pyrimidin-2-yl)piperazin-1-yl)-2-(tert-butyl)-4,17-dioxo-6,9,12,15-tetraoxa-3-azaheptadecanoyl)-4-hydroxy-N-(4-(4-methyloxazol-5-yl)benzyl)pyrrolidine-2-carboxamide] | C (>80% tau protein remaining after 72 hours of incubation with the test compound) |
| Cc1ncsc1-c1ccc(CNC(=O)[C@@H]2C[C@@H](O)CN2C(=O)[C@@H](NC(=O)COCCOCCOc2ccc3nc(-c4ccc(N(C)C)cc4)ccc3c2)C(C)(C)C)cc1 [Compound 27, (2S,4R)-1-((S)-2-(2-(2-(2-(2-(4-(dimethylamino)phenyl)quinolin-6-yloxy)ethoxy)ethoxy)acetamido)-3,3-dimethylbutanoyl)-4-hydroxy-N-(4-(4-methylthiazol-5-yl)benzyl)pyrrolidine-2-carboxamide] | C (>80% tau protein remaining after 72 hours of incubation with the test compound) |
| Cc1ncsc1-c1ccc([C@H](C)NC(=O)[C@@H]2C[C@@H](O)CN2C(=O)[C@@H](NC(=O)COCCOCCOCCN2CCN(c3ccn4c(n3)nc3ccccc34)CC2)C(C)(C)C)cc1 [Compound 15, (2S,4R)-1-((S)-14-(4-(benzo[4,5]imidazo[1,2-a]pyrimidin-2-yl)piperazin-1-yl)-2-(tert-butyl)-4-oxo-6,9,12-trioxa-3-azatetradecanoyl)-4-hydroxy-N—((S)-1-(4-(4-methylthiazol-5-yl)phenyl)ethyl)pyrrolidine-2-carboxamide] | C (>80% tau protein remaining after 72 hours of incubation with the test compound) |
| CN(C)c1ccc(-c2ccc3cc(OCCCOCCOCCOCCNc4cccc5c4C(=O)N(C4CCC(=O)NC4=O)C5=O)ccc3n2)cc1 (stereo not drawn) [Compound 44, 4-(2-(2-(2-(3-(2-(4-(dimethylamino)phenyl)quinolin-6-yloxy)propoxy)ethoxy)ethoxy)ethylamino)-2-(2,6-dioxopiperidin-3-yl)isoindoline-1,3-dione] | C (>80% tau protein remaining after 72 hours of incubation with the test compound) |
